Literature values in patent publication US20010007868A1, “COMPOSITIONS FOR INHIBITING INTESTINAL IRON ABSORPTION” (priority 1998, published 2001).
Where two headings read alike, the source gives them in different places.

Tests used:
[1] = humans
[2] = rats
[3] = system: intestinal absorption of iron (IAI)
[4] = fertile women, 50 mg/day over a 10 week period

O=C(O)CCCC[C@@H]1CCSS1 (racemic) [Lipoic acid]
effect on insulin resistance [1]: improve insulin resistance | effect on insulin resistance [2]: improve insulin resistance

Cc1c(O)c(=O)ccn1C [Deferiprone]
reduction of atherogenesis, in-vivo results: not statistically significant

O=C1O[C@H]([C@@H](O)CO)C(O)=C1O [ascorbic acid]
effect on IAI ([3]; with phytate-containing meal): enhances IAI and offsets the inhibitory effect of phytate

O=C([O-])[O-].[Ca+2] [calcium carbonate]
decrease of IAI ([3]; doses of about 300 mg per meal, both heme and non-heme iron sources): 50-60%

O=P([O-])([O-])O[C@H]1[C@H](OP(=O)([O-])O)[C@H](OP(=O)([O-])[O-])[C@H](OP(=O)([O-])O)[C@@H](OP(=O)([O-])[O-])[C@@H]1OP(=O)([O-])O.[Na+].[Na+].[Na+].[Na+].[Na+].[Na+].[Na+].[Na+].[Na+] [sodium phytate]
reduction of IAI ([3]; dose between 50-300 mg consumed at the time of a meal): about 85%

[Zn] [zinc]
reduction of serum ferritin levels [4]: about 20%
